Measurements published in patent US9303069B2, “Peptides for treating cancer” (University of Mississippi Medical Center, priority 2014, dated 2016).
Ends that are not written are not given here.

How the values were obtained:
[1] = test system: BRCA1-IRIS, TrkB, ErbB2, AKT, p-AKT, p-FOXO, Cyclin D1, Bcl-2 and survivin; experiment: Expression of growth and survival proteins in HOSE and HOSE/IRIS cells (Western); format: cell-based, human; details: IRIS peptide 5 μM, cisplatin 10 μM, combination 2.5 μM IRIS peptide + 5 μM cisplatin
Excerpt: HOSE cells overexpressing IRIS show a higher degree of resistance to cisplatin than HOSE cells (compare blue to black line in FIG. 30).

MDA-MB-468 tumors = experiment: In vivo efficacy on established MDA-MB-468 tumors; set-up: species or system mice; details: day 12; IRIS peptide 10 mg/kg i.t.; combination at half the concentrations
Protocol: Nude 6-8 weeks female mice were injected with 2×10^6 of MDA-MB-468 cells in the 2nd left and 4th right mammary fat pads. When all tumors reached ˜0.1 cm^3 in volume, mice were divided into four groups, one received vehicles (i.e. DMSO injected intraperitoneally [i.p.] and scrambled peptide injected directly into tumors [i.t.]), another received paclitaxel (10 mg/kg, i.p.), the third received IRIS peptide at (10 mg/kg, i.t.), and the last received paclitaxel and IRIS peptide at half the concentrations, injected as above. Drugs were delivered every third day for total of four injections.
In Vivo efficacy of BRCA1-IRIS-inhibitory peptide. Six to eight week old female athymic SCID mice were injected in the second right and the fourth left mammary gland with 2.5×10^6 of MDAMB468 cells. Tumor growth was followed daily until tumors reached 100 mm^3. At this time mice were randomly grouped into four different groups that were injected: a) with DMSO (i.p.) and scrambled peptide (10 mg/kg) intra-tumoral (i.t.), b) injected with IRIS peptide (10 mg/kg, i.t.), c) injected with paclitaxel (10 mg/kg, i.p.), d) injected with IRIS peptide (5 mg/kg, i.t.), and paclitaxel (5 mg/kg, i.p.). […] Change in tumor volume was measured to monitor the efficacy of the treatments using caliper and is represented as percentage of volume at day 0 of treatment. […]

AKT, ERK, MDM2 and Skp2 = experiment: Signalling proteins in SKOV3 and OVCAR3 cells (Western); format: cell-based, human
Excerpt: Finally, to further dissect the IRIS-induced cisplatin resistance pathway, PI3′K/AKT (using […]) and ERK (using PD98059) were inactivated and compared to IRIS peptide in two aggressive ovarian cancer cell lines. […] Phosphorylation of cytoplasmic or nuclear FOXO3a by p-AKT and/or p-ERK promotes MDM2 binding and priming ubiquitylation, which is then followed by Skp2 branching ubiquitylation and FOXO3a degradation (Huang and Tindall, 2011). FOXO was less phosphorylated in LY, PD as well as IRIS-silenced/inactivated SKOV3 or OVCAR3 cells (FIG. 34). […] Consistently, in BRCA1-IRIS silenced/inactivated cells accumulation of unphosphorylated/stabilized FOXO3a was detected. In contrast, FOXO3a was still decreased to different degrees in LY or PD treated cells (FIG. 34).

[2] = test system: MDA-MB-231 and MDA-MB-468 cells; experiment: Invasion assay, matrigel coated Boyden chambers, TNBC cells; format: cell-based, human; details: peptide added every 3rd day
Excerpt: To study invasion in vitro, matrigel coated Boyden chambers were layered with MDA-MB-231 or MDA-MB-468 cells expressing shcontrol of shIRIS expressing cells, also parental cells were layered and grown in the presence of scrambled or IRIS peptide (added every 3rd day). To migrate to the lower side of the chamber or the bottom well, cells must first digest the matrigel. Four days later, a significant number of control treated cells invaded the matrigel and migrated to the lower side of the chambers (FIG. 95, 1st column and FIG. 96) and the bottom well (FIG. 97 and FIG. 98, 1st column) in both cell lines. […] Quantitatively, BRCA1-IRIS silencing or inactivation reduced the invasive/migratory ability of these TNBC cells by ˜100 fold (FIG. 96 and FIG. 97).
Cell Invasion assay. Growth reduced BD Matrigel™ invasion chamber (24 well plate, 8.0 μm, BD BioCoat™) was used to study the invasion ability of control shRNA and BRCA1-IRIS shRNA expressing MDAMB231 cells. Cells (5×10^3) in complete medium (500 μl) were seeded on the upper compartment, and the lower compartment was filled with 750 μl of complete growth medium. […] Cells invaded into the lower side of the membrane as well as those migrate to the bottom well were stained with Crystal Violet, visualized under microscope, photographed and counted. […]

RRIRPRPPRLPRPRPRPLPFPRPGIGTRFLCLPQSIYRSELNVYAFGEHILQISKYS [IRIS peptide]
expression of BRCA1-IRIS, TrkB, ErbB2, AKT, p-AKT, p-FOXO, Cyclin D1, Bcl-2 and survivin [1]: significant decrease
tumor size as % of original size (at day 0) (MDA-MB-468 tumors): ~75%
AKT and ERK expression and activation (AKT, ERK, MDM2 and Skp2): decreased expression and inactivated AKT and ERK
reduction of invasive/migratory ability [2]: ~100 fold
